Measured values: ChEMBL document CHEMBL1156399, “A quinolone alkaloid with antioxidant activity from the aleurone layer of anthocyanin-pigmented rice” (J Nat Prod, 2001)
In brackets after ≈: the same amount, converted by molar mass.

test system: Radical scavenging activity; assay: Antioxidant activity assessed as DPPH radical scavenging activity; assay type: functional

Row | IC50 [µg/mL] | SMILES
1 | 36.4 (≈ 166 µM) | COC(=O)c1cc(=O)[nH]c2ccc(O)cc12
2 | 21.8 (≈ 124 µM) | O=C1O[C@H]([C@@H](O)CO)C(O)=C1O [ASCORBIC ACID]

Row | SMILES | IC50 [µg/mL]
3 | COc1ccc(O)c(C(C)(C)C)c1.COc1ccc(O)cc1C(C)(C)C [BUTYLATED HYDROXYANISOLE] | 20.6
